Measured values published in patent US20250228861A1, “Cancer Treatments Using MTA-Cooperative PRMT5 Inhibitors” (AMGEN INC., priority 2022, published 2025).
Where two headings read alike, the source gives them in different places.

Tests used:
[1] = system: A549 cells; experiment: Combination with pemetrexed, CellTiter-Glo viability, Fa and CalcuSyn CI; settings: 6 days;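 also: fa derived from raw CellTiter-Glo luminescence, CI computed by CalcuSyn from drug concentrations and Fa, with values below 0.9 meaning synergism and 0.9–1.1 nearly additive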
Experimental: (§1) Cell viability was measured by the CellTiter-Glo Luminescence assay. Raw luminescent values were converted to fraction affected (Fa) with the following equation:
(§2) Synergy analysis was performed using the CalcuSyn software to determine CI scores based on the drug concentrations used and corresponding Fa values.

[2] = system: MIAPACA2T2 cells; settings: 6 days
Experimental: as §1, §2

[3] = system: MIAPACA2T2 cells; experiment: Combination with gemcitabine, CellTiter-Glo viability, Fa and CalcuSyn CI; format: cell-based; settings: 6 days
Experimental: as §1, §2

[4] = system: PSN1 cells; settings: 6 days
Experimental: as §1, §2

[5] = system: H292 cells; experiment: Combination with paclitaxel, CellTiter-Glo viability, Fa and CalcuSyn CI; format: cell-based; settings: 6 days;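 also: fa derived from raw luminescence, CI computed in CalcuSyn from drug concentrations and Fa, with CI under 0.9 indicating synergism and 0.9 to 1.1 nearly additive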
Experimental: as §1, §2

[6] = system: MIAPACA2T2 cells; experiment: Combination with carboplatin, CellTiter-Glo viability, Fa and CalcuSyn CI; format: cell-based; settings: 6 days
Experimental: as §1, §2

[7] = system: A549 cells; experiment: Combination with paclitaxel, CellTiter-Glo viability, Fa and CalcuSyn CI; format: cell-based; settings: 6 days;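 also: luminescent viability signal converted to fraction affected (Fa), and Fa with drug concentrations gives the CalcuSyn CI, where 0.9–1.1 is nearly additive and lower CI means stronger synergism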
Experimental: as §1, §2

[8] = system: MIAPACA2T2 cells; experiment: Combination with irinotecan, CellTiter-Glo viability, Fa and CalcuSyn CI; format: cell-based; settings: 6 days
Experimental: as §1, §2

[9] = system: PSN1 cells; experiment: as above; format: cell-based; settings: 6 days
Experimental: as §1, §2

[10] = system: H292 cells; experiment: Combination with pemetrexed, CellTiter-Glo viability, Fa and CalcuSyn CI; settings: 6 days;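 also: fa derived from CellTiter-Glo luminescence signal, CI calculated in CalcuSyn from doses and Fa, with 0.9–1.1 nearly additive and smaller values indicating synergism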
Experimental: as §1, §2

[11] = system: H292 NSCLC xenografts; experiment: H292 NSCLC xenografts, combination with chemotherapy; format: in vivo, mice; settings: 100 mg/kg orally once daily + paclitaxel 20 mg/kg IP
[12] = Compound G 0.437382 μM fixed + Pemetrexed 0.082858 μM
[13] = Compound G 0.437382 μM fixed + Pemetrexed 0.140859 μM
[14] = Compound G 0.437382 μM fixed + Pemetrexed 0.239461 μM
[15] = Compound G 0.437382 μM fixed + Pemetrexed 0.407083 μM
[16] = Compound G 0.437382 μM fixed + Pemetrexed 0.692042 μM
[17] = Compound G 0.437382 μM fixed + Pemetrexed 1.17647 μM
[18] = Compound G 0.437382 μM fixed + Pemetrexed 2 μM
[19] = Compound G 0.83102 μM fixed + 5-FU 0.664052 μM
[20] = Compound G 0.83102 μM fixed + 5-FU 0.929672 μM
[21] = Compound G 0.83102 μM fixed + 5-FU 1.30154 μM
[22] = Compound G 0.83102 μM fixed + 5-FU 1.82216 μM
[23] = Compound G 0.83102 μM fixed + 5-FU 2.55102 μM
[24] = Compound G 0.83102 μM fixed + 5-FU 3.57143 μM
[25] = Compound G 0.83102 μM fixed + 5-FU 5 μM
[26] = Compound G 0.831 μM fixed + Gemcitabine 0.001322 μM
[27] = Compound G 0.831 μM fixed + Gemcitabine 0.001784 μM
[28] = Compound G 0.831 μM fixed + Gemcitabine 0.002409 μM
[29] = Compound G 0.831 μM fixed + Gemcitabine 0.003252 μM
[30] = Compound G 0.831 μM fixed + Gemcitabine 0.00439 μM
[31] = Compound G 0.831 μM fixed + Gemcitabine 0.005926 μM
[32] = Compound G 0.831 μM fixed + Gemcitabine 0.008 μM
[33] = Compound G 0.0213 μM fixed + 5-FU 0.357628 μM
[34] = Compound G 0.0213 μM fixed + 5-FU 0.572205 μM
[35] = Compound G 0.0213 μM fixed + 5-FU 0.915527 μM
[36] = Compound G 0.0213 μM fixed + 5-FU 1.46484 μM
[37] = Compound G 0.0213 μM fixed + 5-FU 2.34375 μM
[38] = Compound G 0.0213 μM fixed + 5-FU 3.75 μM
[39] = Compound G 0.0213 μM fixed + 5-FU 6 μM
[40] = Compound G 0.437382 μM fixed + Paclitaxel 0.0005 μM
[41] = Compound G 0.437382 μM fixed + Paclitaxel 0.0007 μM
[42] = Compound G 0.437382 μM fixed + Paclitaxel 0.0009 μM
[43] = Compound G 0.437382 μM fixed + Paclitaxel 0.0011 μM
[44] = Compound G 0.437382 μM fixed + Paclitaxel 0.0015 μM
[45] = Compound G 0.437382 μM fixed + Paclitaxel 0.0019 μM
[46] = Compound G 0.437382 μM fixed + Paclitaxel 0.0025 μM
[47] = Compound G 0.831 μM fixed + Carboplatin 2.47793 μM
[48] = Compound G 0.831 μM fixed + Carboplatin 3.3452 μM
[49] = Compound G 0.831 μM fixed + Carboplatin 4.51602 μM
[50] = Compound G 0.831 μM fixed + Carboplatin 6.09663 μM
[51] = Compound G 0.831 μM fixed + Carboplatin 8.23045 μM
[52] = Compound G 0.831 μM fixed + Carboplatin 11.1111 μM
[53] = Compound G 0.831 μM fixed + Carboplatin 15 μM
[54] = Compound G 0.83102 μM fixed + Irinotecan 0.131072 μM
[55] = Compound G 0.83102 μM fixed + Irinotecan 0.16384 μM
[56] = Compound G 0.83102 μM fixed + Irinotecan 0.2048 μM
[57] = Compound G 0.83102 μM fixed + Irinotecan 0.256 μM
[58] = Compound G 0.83102 μM fixed + Irinotecan 0.4 μM
[59] = Compound G 0.83102 μM fixed + Irinotecan 0.5 μM
[60] = Compound G 0.83102 μM fixed + Irinotecan […]
[61] = Compound G 0.0213 μM fixed + Irinotecan 0.035117 μM
[62] = Compound G 0.0213 μM fixed + Irinotecan 0.052675 μM
[63] = Compound G 0.0213 μM fixed + Irinotecan 0.079012 μM
[64] = Compound G 0.0213 μM fixed + Irinotecan 0.118519 μM
[65] = Compound G 0.0213 μM fixed + Irinotecan 0.177778 μM
[66] = Compound G 0.0213 μM fixed + Irinotecan 0.266667 μM
[67] = Compound G 0.0213 μM fixed + Irinotecan 0.4 μM

Nc1nc2cnc(C(=O)N3CCOC[C@@H]3c3ccc(C(F)(F)F)cc3)cc2c2c1COC2 [Compound G]
Combination Fa [1, 12]: 0.669
Computed CI value [1, 12]: 0.846
Combination Fa [1, 13]: 0.651
Computed CI value [1, 13]: 1.064
Combination Fa [1, 14]: 0.693
Computed CI value [1, 14]: 0.882
Combination Fa [1, 15]: 0.712
Computed CI value [1, 15]: 0.922
Combination Fa [1, 16]: 0.834
Computed CI value [1, 16]: 0.363
Combination Fa [1, 17]: 0.918
Computed CI value [1, 17]: 0.132
Combination Fa [1, 18]: 0.948
Computed CI value [1, 18]: 0.087
Combination Fa [2, 19]: 0.7114
Computed CI value [2, 19]: 0.445
Combination Fa [2, 20]: 0.7511
Computed CI value [2, 20]: 0.477
Combination Fa [2, 21]: 0.8099
Computed CI value [2, 21]: 0.482
Combination Fa [2, 22]: 0.85
Computed CI value [2, 22]: 0.529
Combination Fa [2, 23]: 0.8941
Computed CI value [2, 23]: 0.555
Combination Fa [2, 24]: 0.9193
Computed CI value [2, 24]: 0.632
Combination Fa [2, 25]: 0.9246
Computed CI value [2, 25]: 0.834
Combination Fa [3, 26]: 0.599
Computed CI value [3, 26]: 1.117
Combination Fa [3, 27]: 0.66
Computed CI value [3, 27]: 1.094
Combination Fa [3, 28]: 0.787
Computed CI value [3, 28]: 0.962
Combination Fa [3, 29]: 0.93
Computed CI value [3, 29]: 0.793
Combination Fa [3, 30]: 0.969
Computed CI value [3, 30]: 0.825
Combination Fa [3, 31]: 0.989
Computed CI value [3, 31]: 0.826
Combination Fa [3, 32]: 0.993
Computed CI value [3, 32]: 0.981
Combination Fa [4, 33]: 0.3
Computed CI value [4, 33]: 1.422
Combination Fa [4, 34]: 0.416
Computed CI value [4, 34]: 1.404
Combination Fa [4, 35]: 0.669
Computed CI value [4, 35]: 1.055
Combination Fa [4, 36]: 0.74
Computed CI value [4, 36]: 1.282
Combination Fa [4, 37]: 0.789
Computed CI value [4, 37]: 1.668
Combination Fa [4, 38]: 0.836
Computed CI value [4, 38]: 2.158
Combination Fa [4, 39]: 0.869
Computed CI value [4, 39]: 2.903
Combination Fa [5, 40]: 0.6656
Computed CI value [5, 40]: 0.92
Combination Fa [5, 41]: 0.7749
Computed CI value [5, 41]: 0.728
Combination Fa [5, 42]: 0.8617
Computed CI value [5, 42]: 0.658
Combination Fa [5, 43]: 0.8929
Computed CI value [5, 43]: 0.704
Combination Fa [5, 44]: 0.9417
Computed CI value [5, 44]: 0.749
Combination Fa [5, 45]: 0.957
Computed CI value [5, 45]: 0.85
Combination Fa [5, 46]: 0.974
Computed CI value [5, 46]: 0.94
Combination Fa [6, 47]: 0.711
Computed CI value [6, 47]: 0.599
Combination Fa [6, 48]: 0.766
Computed CI value [6, 48]: 0.521
Combination Fa [6, 49]: 0.832
Computed CI value [6, 49]: 0.437
Combination Fa [6, 50]: 0.881
Computed CI value [6, 50]: 0.402
Combination Fa [6, 51]: 0.939
Computed CI value [6, 51]: 0.322
Combination Fa [6, 52]: 0.963
Computed CI value [6, 52]: 0.313
Combination Fa [6, 53]: 0.966
Computed CI value [6, 53]: 0.396
Combination Fa [7, 40]: 0.6362
Computed CI value [7, 40]: 0.639
Combination Fa [7, 41]: 0.6087
Computed CI value [7, 41]: 0.863
Combination Fa [7, 42]: 0.7048
Computed CI value [7, 42]: 0.786
Combination Fa [7, 43]: 0.7817
Computed CI value [7, 43]: 0.77
Combination Fa [7, 44]: 0.9048
Computed CI value [7, 44]: 0.736
Combination Fa [7, 45]: 0.95
Computed CI value [7, 45]: 0.759
Combination Fa [7, 46]: 0.9687
Computed CI value [7, 46]: 0.869
Combination Fa [8, 54]: 0.718
Computed CI value [8, 54]: 0.691
Combination Fa [8, 55]: 0.7359
Computed CI value [8, 55]: 0.751
Combination Fa [8, 56]: 0.8028
Computed CI value [8, 56]: 0.72
Combination Fa [8, 57]: 0.8794
Computed CI value [8, 57]: 0.677
Combination Fa [8, 58]: 0.9677
Computed CI value [8, 58]: 0.655
Combination Fa [8, 59]: 0.9854
Computed CI value [8, 59]: 0.649
Combination Fa [8, 60]: 0.9132
Computed CI value [8, 60]: 0.729
Combination Fa [9, 61]: 0.4007
Computed CI value [9, 61]: 0.981
Combination Fa [9, 62]: 0.3585
Computed CI value [9, 62]: 1.28
Combination Fa [9, 63]: 0.4649
Computed CI value [9, 63]: 1.168
Combination Fa [9, 64]: 0.6137
Computed CI value [9, 64]: 1.087
Combination Fa [9, 65]: 0.8505
Computed CI value [9, 65]: 0.852
Combination Fa [9, 66]: 0.9402
Computed CI value [9, 66]: 0.836
Combination Fa [9, 67]: 0.9731
Computed CI value [9, 67]: 0.916
Combination Fa [10, 12]: 0.602
Computed CI value [10, 12]: 1.359
Combination Fa [10, 13]: 0.63
Computed CI value [10, 13]: 1.184
Combination Fa [10, 14]: 0.678
Computed CI value [10, 14]: 0.914
Combination Fa [10, 15]: 0.741
Computed CI value [10, 15]: 0.64
Combination Fa [10, 16]: 0.827
Computed CI value [10, 16]: 0.342
Combination Fa [10, 17]: 0.885
Computed CI value [10, 17]: 0.216
Combination Fa [10, 18]: 0.904
Computed CI value [10, 18]: 0.235
anti-tumor activity of combination with paclitaxel [11]: significant anti-tumor activity versus either single agent alone
